Measurements reported in patent US4593104A, “2-halo-N-(azole-1-yl-methyl)-substituted acetanilides” (BASF Aktiengesellschaft, priority 1976, dated 1986).

Experiments:
Assay in all cases: preemergence treatment in the greenhouse, % damage
Gossyp. hirs. = assay type: in vivo, Gosspyium hirsutum
Procedure, shortened: (§1)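 Greenhouse herbicide test at rates in kg/ha a.i. Pre-em soil spray right after sowing, then irrigation and hooding; post-em on 3–10 cm plants. Rated 0–100 over 4–6 weeks.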

Glyc. max = assay type: in vivo, Glycine max
Procedure, shortened: as §1

Solanum nigrum = assay type: in vivo
Procedure, shortened: as §1

Lept. spp. = assay type: in vivo
Procedure, shortened: as §1

Echin. c.g. = assay type: in vivo
Procedure, shortened: as §1

Sida spin. = assay type: in vivo
Procedure, shortened: as §1

Ipom. spp. = assay type: in vivo
Procedure, shortened: as §1

Amar. retro. = assay type: in vivo
Procedure, shortened: as §1

Cyp. diff. = assay type: in vivo
Procedure, shortened: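 Seeds sown in sandy loam (~1.5% humus); pre-emergence: agents sprayed in water onto soil surface immediately after sowing, then irrigated and hooded until rooting. Post-emergence: plants treated at 3–10 cm height, unhooded. Greenhouse at 25–40 °C or 15–30 °C by species; rates in kg/ha a.i.; damage scored 0–100 after 4–6 weeks.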

Cenchr. ech. = assay type: in vivo
Procedure, shortened: as §1

Panic. virg. = assay type: in vivo
Procedure, shortened: as §1

SMILES: CCc1cccc(CC)c1N(COC)C(=O)CCl [bekannt, reference compound]
- % damage (Gossyp. hirs.; 0.25 kg/ha): 0%
- % damage (Gossyp. hirs.; 0.5 kg/ha): 6%
- % damage (Gossyp. hirs.; 1.0 kg/ha): 20%
- % damage (Gossyp. hirs.; 2.0 kg/ha): 45%
- % damage (Glyc. max; 0.25 kg/ha): 0%
- % damage (Glyc. max; 0.5 kg/ha): 0%
- % damage (Glyc. max; 1.0 kg/ha): 0%
- % damage (Glyc. max; 2.0 kg/ha): 0%
- % damage (Solanum nigrum; 0.25 kg/ha): 50%
- % damage (Solanum nigrum; 0.5 kg/ha): 73%
- % damage (Solanum nigrum; 1.0 kg/ha): 90%
- % damage (Solanum nigrum; 2.0 kg/ha): 90%
- % damage (Lept. spp.; 0.25 kg/ha): 100%
- % damage (Lept. spp.; 0.5 kg/ha): 100%
- % damage (Lept. spp.; 1.0 kg/ha): 100%
- % damage (Lept. spp.; 2.0 kg/ha): 100%
- % damage (Echin. c.g.; 0.25 kg/ha): 45%
- % damage (Echin. c.g.; 0.5 kg/ha): 75%
- % damage (Echin. c.g.; 1.0 kg/ha): 90%
- % damage (Echin. c.g.; 2.0 kg/ha): 95%
- % damage (Sida spin.; 1.0 kg/ha): 10%
- % damage (Sida spin.; 2.0 kg/ha): 70%
- % damage (Ipom. spp.; 1.0 kg/ha): 20%
- % damage (Ipom. spp.; 2.0 kg/ha): 30%
- % damage (Amar. retro.; 0.25 kg/ha): 68%
- % damage (Amar. retro.; 0.5 kg/ha): 81%
- % damage (Amar. retro.; 1.0 kg/ha): 88%
- % damage (Amar. retro.; 2.0 kg/ha): 92%
- % damage (Cyp. diff.; 0.25 kg/ha): 65%
- % damage (Cyp. diff.; 0.5 kg/ha): 70%
- % damage (Cyp. diff.; 1.0 kg/ha): 78%
- % damage (Cyp. diff.; 2.0 kg/ha): 100%
- % damage (Cenchr. ech.; 0.25 kg/ha): 92%
- % damage (Cenchr. ech.; 0.5 kg/ha): 95%
- % damage (Cenchr. ech.; 1.0 kg/ha): 100%
- % damage (Cenchr. ech.; 2.0 kg/ha): 100%
- % damage (Panic. virg.; 0.25 kg/ha): 30%
- % damage (Panic. virg.; 0.5 kg/ha): 45%
- % damage (Panic. virg.; 1.0 kg/ha): 92%
- % damage (Panic. virg.; 2.0 kg/ha): 100%
